Activity calls are given as the source filed them.
Key:
3T3-L1 [1] = experiment: Anti-adipogenic activity in MDI-cocktail differentiated mouse 3T3-L1 pre-adipocyte cells assessed as inhibition of adipogenesis at 0.1 uM by Oil Red O staining based microscopic analysis; assay type: functional, cell-based
3T3-L1 [2] = experiment: Anti-adipogenic activity in MDI-cocktail differentiated mouse 3T3-L1 pre-adipocyte cells assessed as inhibition of adipogenesis at 20 uM by Oil Red O staining based microscopic analysis relative to control; assay type: functional
3T3-L1 [3] = experiment: Cytotoxicity against mouse 3T3-L1 pre-adipocyte cells assessed as reduction in cell viability 100 uM incubated for 48 hrs by MTT assay; assay type: toxicity, cell-based; details: 3t3-l1, 48 h
3T3-L1 [4] = experiment: Inhibition of MDI-cocktail induced adipogenic differentiation in mouse 3T3-L1 pre-adipocyte cells assessed as inhibition of lipid accumulation by Oil Red O staining based microscopic analysis; assay type: functional, cell-based; details: dose 0.5-20 µM
C3H 10T1/2 [5] = experiment: Inhibition of MDI-cocktail induced adipogenic differentiation in mouse C3H 10T1/2 cells assessed as inhibition of lipid accumulation by Oil Red O staining based microscopic analysis; assay type: functional, cell-based; details: dose 0.5-20 µM
3T3-L1 [6] = experiment: Inhibition of MDI-cocktail induced adipogenic differentiation in mouse 3T3-L1 pre-adipocyte cells assessed as reduction in lipid bound stain absorbance at 0.5 to 25 uM by Oil Red O staining based microscopic analysis; assay type: functional, cell-based; details: dose 0.5-25 µM
C3H 10T1/2 [7] = experiment: Inhibition of MDI-cocktail induced adipogenic differentiation in mouse C3H 10T1/2 cells assessed as reduction in lipid bound stain absorbance at 0.5 to 25 uM by Oil Red O staining based microscopic analysis; assay type: functional, cell-based; details: dose 0.5-25 µM
3T3-L1 [8] = experiment: Inhibition of MDI-cocktail induced adipogenic differentiation in mouse 3T3-L1 pre-adipocyte cells assessed as reduction in FASN protein expression at 0.5 to 5 uM by Western blot analysis; assay type: functional, cell-based; details: dose 0.5-5 µM
3T3-L1 [9] = experiment: Inhibition of MDI-cocktail induced adipogenic differentiation in mouse 3T3-L1 pre-adipocyte cells assessed as reduction in FABP4 protein expression at 0.5 to 5 uM by Western blot analysis; assay type: functional, cell-based; details: dose 0.5-5 µM
3T3-L1 [10] = experiment: Inhibition of MDI-cocktail induced adipogenic differentiation in mouse 3T3-L1 pre-adipocyte cells assessed as reduction in PPARgamma gene expression at 5 uM by qRT-PCR analysis; assay type: functional, cell-based
3T3-L1 [11] = experiment: Inhibition of MDI-cocktail induced adipogenic differentiation in mouse 3T3-L1 pre-adipocyte cells assessed as reduction in CEBPalpha gene expression at 5 uM by qRT-PCR analysis; assay type: functional, cell-based
3T3-L1 [12] = experiment: Inhibition of MDI-cocktail induced adipogenic differentiation in mouse 3T3-L1 pre-adipocyte cells assessed as reduction in FASN gene expression at 5 uM by qRT-PCR analysis; assay type: functional, cell-based
3T3-L1 [13] = experiment: Anti-adipogenic activity in MDI-cocktail differentiated mouse 3T3-L1 pre-adipocyte cells assessed as reduction in adipogenic differentiation at 5 uM measured after 0 to 5 days by Oil Red O staining based microscopic analysis; assay type: functional, cell-based; details: time 0-5 day
3T3-L1 [14] = experiment: Anti-adipogenic activity in MDI-cocktail differentiated mouse 3T3-L1 pre-adipocyte cells assessed as reduction in adipogenic differentiation at 5 uM measured after 0 to 7 days by Oil Red O staining based microscopic analysis; assay type: functional, cell-based; details: time 0-7 day
3T3-L1 [15] = experiment: Anti-adipogenic activity in MDI-cocktail differentiated mouse 3T3-L1 pre-adipocyte cells assessed as reduction in adipogenic differentiation at 5 uM measured after 3 to 5 days by Oil Red O staining based microscopic analysis; assay type: functional, cell-based; details: time 3-5 day
C3H 10T1/2 [16] = experiment: Anti-adipogenic activity in MDI-cocktail differentiated mouse C3H 10T1/2 cells assessed as reduction in adipogenic differentiation at 5 uM measured after 0 to 3 days by Oil Red O staining based microscopic analysis; assay type: functional, cell-based; details: time 0-3 day
C3H 10T1/2 [17] = experiment: Anti-adipogenic activity in MDI-cocktail differentiated mouse C3H 10T1/2 cells assessed as reduction in adipogenic differentiation at 5 uM measured after 5 to 7 days by Oil Red O staining based microscopic analysis; assay type: functional, cell-based; details: time 5-7 day
3T3-L1 [18] = experiment: Anti-adipogenic activity in MDI-cocktail differentiated mouse 3T3-L1 pre-adipocyte cells assessed as reduction in PPARgamma protein expression at 5 uM measured for 3 to 7 days by immunoblotting analysis; assay type: functional, cell-based; details: time 3-7 day
3T3-L1 [19] = experiment: Anti-adipogenic activity in MDI-cocktail differentiated mouse 3T3-L1 pre-adipocyte cells assessed as increase in AMPK phosphorylation at Thr172 residue at 5 uM measured for 3 to 7 days by immunoblotting analysis; assay type: functional, cell-based; details: time 3-7 day
3T3-L1 [20] = experiment: Induction of cell cycle arrest in MDI-cocktail differentiated mouse 3T3-L1 pre-adipocyte cells assessed as reduction in cyclin D1 protein expression at 5 uM measured after 16 to 24 hrs by immunoblotting analysis; assay type: functional, cell-based; details: time 16-24 hrs
3T3-L1 [21] = experiment: Inhibition of MDI-cocktail induced mTOR phosphorylation at Ser2448 residue in mouse 3T3-L1 pre-adipocyte cells at 5 uM by immunoblotting analysis; assay type: cell-based
3T3-L1 [22] = experiment: Induction of mitochondrial respiration in MDI-cocktail differentiated mouse 3T3-L1 pre-adipocyte cells assessed as increase in oxygen consumption rate at 5 uM incubated for 72 hrs by Seahorse XFp flux analyzer; assay type: functional, cell-based
3T3-L1 [23] = experiment: Induction of mitochondrial respiration in MDI-cocktail differentiated mouse 3T3-L1 pre-adipocyte cells assessed as increase in oxygen consumption rate at 5 uM incubated for 72 hrs in presence of FCCP by Seahorse XFp flux analyzer; assay type: functional, cell-based
3T3-L1 [24] = experiment: Induction of ATP production during early phase in MDI-cocktail differentiated mouse 3T3-L1 pre-adipocyte cells 5 uM incubated for 72 hrs by Seahorse XFp flux analyzer; assay type: functional, cell-based
3T3-L1 [25] = experiment: Induction of proton leak during early phase in MDI-cocktail differentiated mouse 3T3-L1 pre-adipocyte cells 5 uM incubated for 72 hrs by Seahorse XFp flux analyzer; assay type: functional, cell-based
3T3-L1 [26] = experiment: Upregulation of CIV-MTCO1 protein expression in mouse 3T3-L1 mature adipocytes at 1 to 5 uM incubated for 24 hrs by Western blot analysis; assay type: functional, cell-based; details: dose 1-5 µM
3T3-L1 [27] = experiment: Upregulation of CI-NDUFB8 protein expression in mouse 3T3-L1 mature adipocytes at 1 to 5 uM incubated for 24 hrs by Western blot analysis; assay type: functional, cell-based; details: dose 1-5 µM
[28] = Toxicity in high-fat diet induced Syrian golden hamster obese model assessed as effect on food intake at 25 to 50 mg/kg, po administered for 7 days and measured daily; assay type: organism-based, Mesocricetus auratus; details: in vivo, 168 h, dose 25-50 mg/kg, time 7 day
Syrian golden hamster [29] = experiment: Anti-obesity activity in high-fat diet induced Syrian golden hamster model assessed as rescue of normal liver weight at 25 to 50 mg/kg, po administered for 7 days; assay type: functional, organism-based; details: Mesocricetus auratus, dose 25-50 mg/kg, time 7.0 day
Syrian golden hamster [30] = experiment: Anti-obesity activity in high-fat diet induced Syrian golden hamster model assessed as reduction in fat mass at 50 mg/kg, po administered for 7 days by 1H NMR spectroscopy-based Echo MRI system; assay type: functional, organism-based; details: Mesocricetus auratus, time 7.0 day
Syrian golden hamster [31] = experiment: Anti-dyslipidaemic activity in high-fat diet induced Syrian golden hamster model assessed as assessed as reduction in serum triglyceride level at 25 to 50 mg/kg, po administered for 7 days; assay type: functional, organism-based; details: Mesocricetus auratus, dose 25-50 mg/kg, time 7.0 day
3T3-L1 [32] = experiment: Cytotoxicity against mouse 3T3-L1 pre-adipocyte cells assessed as reduction in cell viability >20 uM incubated for 48 hrs by MTT assay; assay type: toxicity, cell-based; details: 3t3-l1, 48 h

Cc1ccc(-c2cnc(-c3ccc[n+](Cc4cccc(C)c4)c3)o2)cc1.[Br-]
Non-Toxic: Activity [28] | Activity (3T3-L1 [32])
> 70%: inhibition at 20 µM (3T3-L1 [2])
Toxic: Activity (3T3-L1 [3])
active: Activity (3T3-L1 [1]) | inhibition (3T3-L1 [4]) | inhibition (C3H 10T1/2 [5]) | inhibition (3T3-L1 [6]) | inhibition (C3H 10T1/2 [7]) | inhibition (3T3-L1 [8]) | inhibition (3T3-L1 [9]) | inhibition (3T3-L1 [10]) | inhibition (3T3-L1 [11]) | inhibition (3T3-L1 [12]) | Activity (3T3-L1 [13]) | Activity (3T3-L1 [14]) | Activity (3T3-L1 [15]) | Activity (C3H 10T1/2 [16]) | Activity (C3H 10T1/2 [17]) | Activity (3T3-L1 [18]) | Activity (3T3-L1 [19]) | Activity (3T3-L1 [20]) | inhibition (3T3-L1 [21]) | Activity (3T3-L1 [22]) | Activity (3T3-L1 [23]) | Activity (3T3-L1 [24]) | Activity (3T3-L1 [25]) | Activity (3T3-L1 [26]) | Activity (3T3-L1 [27]) | Activity (Syrian golden hamster [30]) | Activity (Syrian golden hamster [31])
inactive: Activity (Syrian golden hamster [29])
